These results are taken from ChEMBL document CHEMBL6096737, “Discovery of Pyrrolopyrazine Carboxamide Derivatives as Potent and Selective FGFR2/3 Inhibitors that Overcome Mutant Resistance” (J Med Chem, 2025).

Molecules are shown by their SMILES.

The nature of data set [1]: physchem. The note with it: glutathione (GSH) solution, 1 uM GSH.
The nature of data set [2]: physchem. The note with it: glutathione (GSH) solution, 0.1 uM GSH.
Data set [3] can be described thus: in vivo. The note with it: male, Beagle, dog, po, 5 mg/kg.
Data set [4] in a line: in vivo. The note with it: male, Beagle, dog, plasma, iv, 1 mg/kg.
The nature of data set [5]: in vivo. The note with it: female, Balb/c, mouse, po, 10 mg/kg.
Data set [6] is described as follows: in vivo. The note with it: male, Beagle, dog, po, 5 mg/kg. This is another data set of the same source.
Data set [7] in a line: in vivo. The note with it: male, Sprague-Dawley, rat, po, 10 mg/kg.
A short description of data set [8]: in vivo. The note with it: male, Beagle, dog, po, 5 mg/kg. The source holds these as a separate data set.
Another data set in a line: in vitro. The note with it: human, plasma.
Data set [9] is described as follows: in vivo. The note with it: female, Balb/c, mouse, po, 10 mg/kg. This is another data set of the same source.
The nature of data set [10]: in vivo. The note with it: female, CD-1, mouse, po, 10 mg/kg.
Data set [11] in a line: in vivo. The note with it: male, Sprague-Dawley, rat, po, 10 mg/kg. The source holds these as a separate data set.
The nature of data set [12]: in vivo. The note with it: male, Beagle, dog, po, 5 mg/kg. This is another data set of the same source.
A short description of data set [13]: in vivo. The note with it: female, Balb/c, mouse, po, 10 mg/kg. This is another data set of the same source.
Data set [14] is described as follows: in vivo. The note with it: male, Sprague-Dawley, rat, po, 10 mg/kg. The source holds these as a separate data set.
The nature of data set [15]: in vivo. The note with it: male, Sprague-Dawley, rat, po, 10 mg/kg. This is another data set of the same source.
Data set [16] in a line: in vivo. The note with it: female, CD-1, mouse, po, 10 mg/kg. This is another data set of the same source.
A short description of data set [17]: in vivo. The note with it: male, Beagle, dog, po, 5 mg/kg. The source holds these as a separate data set.
Data set [18] in a line: in vivo. The note with it: female, CD-1, mouse, po, 10 mg/kg. The source holds these as a separate data set.
Data set [19] in a line: in vivo. The note with it: male, Sprague-Dawley, rat, plasma, iv, 1 mg/kg.
Data set [20] in a line: in vivo. The note with it: male, Sprague-Dawley, rat, po, 10 mg/kg. This is another data set of the same source.
The nature of data set [21]: in vivo. The note with it: female, CD-1, mouse, plasma, iv, 1 mg/kg.
Data set [22] in a line: in vivo. The note with it: female, CD-1, mouse, po, 10 mg/kg. This is another data set of the same source.
The nature of data set [23]: in vivo. The note with it: female, CD-1, mouse, po, 10 mg/kg. The source holds these as a separate data set.

Usually half-life stands for the time in which the quantity being followed falls by half. Regarding `C=C(CO)C(=O)Nc1ccc(-c2c(-c3ccc(Oc4nccc(C)n4)cc3)c(C(N)=O)c3cnc(C)cn23)cc1`, the half-life in “physchem [1]” was 0.9 h; in “physchem [2]”, 0.8 h.

The bioavailability is the share of a dose that reaches the circulation, judged against a reference dose that is usually intravenous. Read a low bioavailability as poor availability. The term clearance denotes a measure of how efficiently the substance is removed, as volume per time. A lower clearance goes with a low capacity for elimination. By Cmax is commonly meant the highest concentration seen after dosing. As usually defined, the MRT last is the average time that molecules of a dose stay in the body. What is called AUC(0-t) is the area under the concentration-time curve up to a stated or last time point. Lower therefore signals low exposure. On to `C=C(C)C(=O)Nc1ccc(-c2c(-c3ccc(Oc4nccc(C)n4)c(F)c3)c3c(N)ncnc3n2C)cc1` [LIRAFUGRATINIB], for which the bioavailability at 24 h in the data set “in vivo [3]” came out at 75.4%; in the data set “in vivo [11]” it was 16%. Besides, the clearance at 24 h in “in vivo [4]” is 24.9 mL/min/kg; in the data set “in vivo [19]” it was 59.4 mL/min/kg. The compound also returned a Cmax at 8 h in the data set “in vivo [5]” of 3740 ng/mL. The MRT last at 24 h in the data set “in vivo [6]” turned out to be 0.87 h; in “in vivo [14]” it was 0.23 h; in the data set “in vivo [16]” it was 2 h. Further, the half-life at 24 h is 0.77 h in the data set “in vivo [7]”, 2.3 h in the data set “in vivo [12]” and 2.4 h in the data set “in vivo [18]”. Further, the results for the AUC(0-t) at 24 h in the data set “in vivo [8]” and in “in vivo [20]” were 2680 ng·h/mL and 448 ng·h/mL, respectively. Further, in the data set “in vitro”, the half-life was above 4.82 h. The compound also yielded an MRT last at 8 h in “in vivo [9]” of 2.7 h. The peak concentration (Cmax) at 24 h in the data set “in vivo [10]” amounted to 5760 ng/mL; in “in vivo [15]”, 111 ng/mL; in the data set “in vivo [17]”, 1360 ng/mL. The same compound displayed an AUC(0-t) at 8 h in “in vivo [13]” of 20000 ng·h/mL.

In “in vitro”, `C=C(F)C(=O)Nc1ccc(-c2c(-c3ccc(Oc4nccc(C)n4)cc3)c(C(N)=O)c3cnc(C)cn23)c(F)c1` came in with a half-life above 4.82 h. The compound also returned a clearance at 24 h in “in vivo [21]” of 29.1 mL/min/kg. Also, the area under the curve AUC(0-t) at 24 h in the data set “in vivo [22]” amounted to 2470 ng·h/mL. In addition, the bioavailability at 24 h in “in vivo [23]” was determined as 41.9%.
